Like-named read-outs stand apart in the source and are kept apart here.

The conditions of data set [1]: amine drug, cited from earlier work.
Data set [2] in a line: Solubility test of paliperidone with ionizable compound (citric acid) and amphiphilic compound (SoluPlus). The data set is classed as physicochemical. The conditions noted are these: for solubility: room temperature. The protocol:
A solubility test was performed to quantify the synergistic effects provided by the combination of an ionizable polymer and an amphiphilic compound. In this Example the ionizable compound was citric acid and the amphiphilic compound was SoluPlus®.

In general, pKa refers to the negative logarithm of the acid dissociation constant. For `Cc1cc2c(s1)Nc1ccccc1N=C2N1CCN(C)CC1` [Olanzapine], the pKa is given as 5 in data set [1] (first pKa value) and 7.4 in data set [1] (second pKa value).
As a reminder, the solubility is how much of the substance goes into solution per volume. On to `Cc1nc2n(c(=O)c1CCN1CCC(c3noc4cc(F)ccc34)CC1)CCCC2O` (stereo not drawn) [Paliperidone], for which the pKa was 8.2 in data set [1] (first pKa value) and 8.6 in data set [1] (second pKa value). Also, the “solubility higher in solution containing ionizable compound and amphiphilic polymer compared to ionizable compound without amphiphilic polymer” value in data set [2] (10% Soluplus + 10% citric acid vs 10% citric acid alone) is 34.3%. In addition, the solubility turned out to be 241 mg/mL in data set [2] (aqueous buffer, in 10% Citric Acid Aqueous Solution); 0.6 mg/mL in data set [2] (aqueous with cosolvent or surfactant or cyclodextrin, in 10% Soluplus Aqueous Solution); 324 mg/mL in data set [2] (aqueous with cosolvent or surfactant or cyclodextrin, in 10% Soluplus and 10% Citric Acid Aqueous Solution).
Consider `CCOc1ccccc1OCCN[C@H](C)Cc1ccc(OC)c(S(N)(=O)=O)c1` [Tamsulosin], for which, in data set [1] (second pKa value), the pKa was 10.23.

The record behind these values is patent US9011912B2, “Extended-release oral dosage forms for poorly soluble amine drugs” (Abon Pharmaceuticals, LLC, priority 2010, dated 2015).
